Here are results for three compounds from patent US20200223826A1, “Glucose-6-Phosphate Dehydrogenase (G6PD)-Modulating Agents And Methods Of Treating G6PD Deficiency” (The Board of Trustees of the Leland Stanford Junior …, priority 2017, published 2020).

Marks after values point to notes of the source that are not given here.

Data set [1] relates to point mutants of the Canton variant of G6PD. Description: Effect of point mutations of Canton G6PD on compound activity. The data set is classed as biochemical, human. The note with it: mutations on the side opposite the putative binding site. The method, then: The gene encoding wild-type (WT) G6PD was inserted into the pET-28a vector, using NdeI and SalI restriction sites by polymerase chain reaction (PCR). Site-directed mutagenesis to generate G6PD variants was performed using appropriate primer sets according to the manufacturer's guidelines (Agilent). All constructs were verified by sequencing.
Enzyme activity was measured by monitoring NADPH production, which was coupled with diaphorase converting resazurin to fluorescent resorufin (excitation at 565 nm and emission at 590 nm); fluorescent signal was thus proportional to G6PD activity. Assays were performed at 25° C. and run for 5 minutes in buffer containing 50 mM Tris (pH 7.4), 0.5 mM EDTA, 3.3 mM MgCl2, 1 U/ml diaphorase, 0.1 mM resazurin. 10 ng of recombinant enzymes or 10 μg of cell lysates was used for the assay with 10 μM NADP^+ (Sigma) as cofactor and 100 μM G6P (Sigma) as substrate. Steady-state kinetic parameters were obtained by varying concentrations of NADP^+ (0-10 μM) with a constant concentration of G6P (100 μM) and similarly for G6P (0-100 μM) with a constant concentration of NADP^+ (10 μM) with 10 ng of recombinant enzymes. Data analysis was performed using GraphPad Prism software v.6 (GraphPad Software, La Jolla, Calif. USA). Kinetic parameters were obtained by fitting the data to the Michaelis-Menten equation. […]

The target of data set [2] is T1, wt G6PD obtained from a blood sample (Homo sapiens, UniProt P11413).
T1 construct: tissue Stanford Blood Center; host or cells: blood / erythrocytes
T1 sequence (P11413 2-515 limits assumed): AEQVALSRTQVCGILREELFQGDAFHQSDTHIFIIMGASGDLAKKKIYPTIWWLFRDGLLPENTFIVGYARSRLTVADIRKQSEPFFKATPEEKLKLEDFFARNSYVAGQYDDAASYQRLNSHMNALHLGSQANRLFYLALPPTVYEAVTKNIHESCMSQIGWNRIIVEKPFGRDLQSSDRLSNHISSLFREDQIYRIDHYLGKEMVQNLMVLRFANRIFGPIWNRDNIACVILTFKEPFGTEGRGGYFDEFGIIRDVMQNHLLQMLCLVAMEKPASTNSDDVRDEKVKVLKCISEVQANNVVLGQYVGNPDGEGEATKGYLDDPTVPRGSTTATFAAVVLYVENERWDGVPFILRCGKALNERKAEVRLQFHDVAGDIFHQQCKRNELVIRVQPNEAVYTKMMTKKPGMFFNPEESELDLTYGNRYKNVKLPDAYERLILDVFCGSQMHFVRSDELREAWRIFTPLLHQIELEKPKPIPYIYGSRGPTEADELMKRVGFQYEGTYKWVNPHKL
Description: G6PD enzyme activation on wt G6PD from a blood sample. The data set is classed as biochemical. The note with it: 100 uM compound. The method, then:
Enzyme activity was measured by monitoring NADPH production, which was coupled with diaphorase converting resazurin to fluorescent resorufin (excitation at 565 nm and emission at 590 nm); fluorescent signal was thus proportional to G6PD activity. Assays were performed at 25° C. and run for 5 minutes in buffer containing 50 mM Tris (pH 7.4), 0.5 mM EDTA, 3.3 mM MgCl2, 1 U/ml diaphorase, 0.1 mM resazurin. 10 ng of recombinant enzymes or 10 μg of cell lysates was used for the assay with 10 μM NADP^+ (Sigma) as cofactor and 100 μM G6P (Sigma) as substrate. […]
De-identified blood samples were obtained from the Stanford Blood Center. […] G6PD activity was measured (Beutler E. Red cell metabolism: A manual of biochemical methods (3rd edition). Grune & Stratton (1984)). […] Hemoglobin release in the supernatant was monitored by measuring absorbance at 540 nm. […] After wash, the samples were lysed with 0.1% Triton X-100 (final concentration), and the florescence was analyzed with excitation/emission at 485/525 nm. GSH measurement was determined using a Cayman glutathione assay kit (Cayman Chemicals, 703002). […] The absorbance was read at 412 nm. For storage assay, a 5% erythrocyte suspension was stored at 4° C. with and without 1 μM AG1, and hemolysis and G6PD activity were monitored every week for 28 days to examine whether AG1 improves preservation of erythrocytes over time. […]

For a further data set, the system named is G6PD. Nature of the data set: G6PD activation activity, compounds with various linkers. The data set is classed as biochemical. As to conditions: 100 uM compound.
The next data set deals with T2, Canton W509A G6PD (Homo sapiens, UniProt P11413, R459L/W509A).
T2 construct: His (pET-28a) (N, cleaved yes); made in house; host or cells: E. coli C43 (DE3)
T2 sequence (P11413 whole entry R459L/W509A): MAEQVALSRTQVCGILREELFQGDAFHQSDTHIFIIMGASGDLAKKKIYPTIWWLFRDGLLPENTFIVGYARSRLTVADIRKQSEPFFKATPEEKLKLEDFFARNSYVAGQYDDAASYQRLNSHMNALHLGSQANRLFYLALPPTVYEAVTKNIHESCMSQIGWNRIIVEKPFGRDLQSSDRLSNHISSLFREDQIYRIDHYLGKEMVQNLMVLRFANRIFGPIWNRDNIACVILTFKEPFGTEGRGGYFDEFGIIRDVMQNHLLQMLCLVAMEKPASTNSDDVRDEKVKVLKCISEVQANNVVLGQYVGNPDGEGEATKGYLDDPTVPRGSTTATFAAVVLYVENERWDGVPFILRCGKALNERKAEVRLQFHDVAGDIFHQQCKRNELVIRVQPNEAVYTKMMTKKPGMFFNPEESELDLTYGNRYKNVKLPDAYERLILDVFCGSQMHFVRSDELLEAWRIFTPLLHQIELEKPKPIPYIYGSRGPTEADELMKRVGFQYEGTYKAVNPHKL
Description: Canton W509A G6PD enzyme activation. Type of data set: biochemical. The method, then: (§1) Enzyme activity was measured by monitoring NADPH production, which was coupled with diaphorase converting resazurin to fluorescent resorufin (excitation at 565 nm and emission at 590 nm); fluorescent signal was thus proportional to G6PD activity. Assays were performed at 25° C. and run for 5 minutes in buffer containing 50 mM Tris (pH 7.4), 0.5 mM EDTA, 3.3 mM MgCl2, 1 U/ml diaphorase, 0.1 mM resazurin. 10 ng of recombinant enzymes or 10 μg of cell lysates was used for the assay with 10 μM NADP^+ (Sigma) as cofactor and 100 μM G6P (Sigma) as substrate. Steady-state kinetic parameters were obtained by varying concentrations of NADP^+ (0-10 μM) with a constant concentration of G6P (100 μM) and similarly for G6P (0-100 μM) with a constant concentration of NADP^+ (10 μM) with 10 ng of recombinant enzymes. Data analysis was performed using GraphPad Prism software v.6 (GraphPad Software, La Jolla, Calif. USA). Kinetic parameters were obtained by fitting the data to the Michaelis-Menten equation.
(§2) Based on preliminary results with compound AG1, a variety of compounds of interest were prepared and assessed in G6PD enzyme activation assays, according to the methods described herein.

A further data set has as its target T3, Canton G6PD (Homo sapiens, UniProt P11413, R459L).
T3 construct: His (pET-28a) (N, cleaved yes); made in house; host or cells: E. coli C43 (DE3)
Nature of the data set: Canton G6PD enzyme activity, diaphorase-coupled assay. The data set is classed as biochemical. The note with it: Canton G6PD. The method, then: as §1
The diaphorase-coupled enzyme assay as described above was used to screen a library of compounds for small molecule activators. The compounds were added to Canton G6PD enzyme reaction mixture at a final concentration of 16.67 μM using Caliper Life Sciences Staccato system with a Twister II robot and a Sciclone ALH3000 (Caliper Life Sciences, Alameda, Calif. USA) integrated with a V&P Scientific pin tool, which was followed by incubation for 3 hours. Addition of G6P then initiated the reaction, which was run for 2.5 minutes. The fluorescent signals were recorded 4 times during the run using Molecular Devices AnalystGT (Molecular Devices, Sunnyvale, Calif. USA). Any compounds showing 30% activation of the enzyme were rescreened in a dose-dependent manner (0-30 μM, duplicate) to identify potential hits.
as §2

In a further data set the test system is zebrafish embryos. Nature of the data set: Pericardial edema in zebrafish embryos. The data set is classed as in vivo. The note with it: 50 μg/ml at 24 hpf. The method, then:
Embryos were dechorinated with pronase at 24 hours post fertilization (hpf) and treated with 50 μg/ml of chloroquine and/or AG1 by directly adding the compounds to the well. For ROS measurements, embryos were incubated with compounds for 2 hours, and then the ROS detecting reagent (CM-H2DCFDA) was added at a final concentration of 500 ng/ml to the well for a total treatment time of 5 hours. One embryo was placed to each well of a black, opaque 96-well plate. The florescence was analyzed with excitation/emission at 485/525 nm. After ROS assays, embryos at about 32 hpf were pooled and lysed in buffer containing 50 mM Tris (pH 7.4), 150 mM NaCl, 1 mM EDTA, 0.1% NP-40, and protease inhibitor cocktail, which was followed by three cycles of freeze and thawing in liquid nitrogen. The lysate was centrifuged at 14,000 rpm at 4° C. for 15 minutes. Total protein concentration in the supernatants (total lysate) was determined by Bradford method. 50 μg of total lysate was loaded onto 10% SDS-PAGE gels and the protein level was examined by Western blot using anti-G6PD antibody (Abcam (G6PD: AB87230)). 10 μg of total lysate was used for enzymatic assay. 50 μg of the lysate was used to measure NADPH levels using a NADPH quantification kit (Biovision), according to the manufacturer's instructions.
Live embryos were anesthetized and mounted in 3% methylcellulose. Embryos were imaged with a Leica M205FA microscope equipped with a 1.0× Plan Apochromatic objective and a SPOT Flex camera or a Leica DM4500B compound microscope equipped with a QImaging Retiga-SRV camera. For hemoglobin staining, fixed embryos were stained with o-dianisidine as previously reported (10), cleared, mounted in 100% glycerol, and imaged with a Leica M205FA microscope equipped with a 1.0× Plan Apochromatic objective and a SPOT Flex camera. All images were captured using SPOT or MetaMorph imaging software (Diagnostic Imaging Inc.) and processed in Photoshop (Adobe). Adjustments were limited to brightness levels and cropping. Analysis was carried out by an observer blinded to the experimental conditions.

T3 sequence (P11413 whole entry R459L): as the sequence (P11413 whole entry R459L/W509A) above, with A509W counted along it

As for “2-[2-(1H-indol-3-yl)ethylamino]ethanethiol [AG1]”, in data set [1], the “effect of mutations on AC50” value is “no effect on AC50”. In addition, the “Enzyme activity (%)” value is 127% in data set [2] and 156%^c in the data set with G6PD.

For `c1cc(CNCCc2ccc3c(c2)OCO3)c2c(CNCCc3ccc4c(c3)OCO4)cccc2c1` [AR4-078], at Canton W509A G6PD, the AC50 (in general, the concentration giving half of the maximal activity seen) came to 58 µM and the Amax came to 3.8. For the same compound, on Canton G6PD, half-maximal activity (AC50) was put at 74 µM and the Amax is recorded as 2.0. In data set [2], the enzyme activity at 100 µM is 154%.

For the compound `CCN(CC)CCCC(C)Nc1ccnc2cc(Cl)ccc12` (stereo not drawn) [chloroquine, reference compound], the “effect of chloroquine on embryos” value in the data set on zebrafish embryos was “led to pericardial edema and increased ROS levels”.
